Starred links: 1 amine or outer side, 2 acyl side, 3 side chain; linkers in the order of their positions; H or OH if unused. Positions of bridges follow the written chain, without caps; N, C: chain ends. Non-standard residues stand in square brackets, D forms with d. Residues, ends and D or L forms follow the SMILES beside them. Groups on a side chain read outwards from the residue. *: point of attachment. X16 = C[N+](C)(C)Cc1cn(-c2ccc(C[C@H](N[*:1])C(=O)[*:2])cc2)nn1; Me3N+(CH2)2O(CH2)2O(CH2)2CO = C[N+](C)(C)CCOCCOCCC(=O)*; CH2CH2OCH2CH2OCH2CH2NMe3+ = C[N+](C)(C)CCOCCOCC*; Trp(7-Me) = Cc1cccc2c(C[C@H](N)C(=O)O)c[nH]c12; d(hLys(Me3)) = C[N+](C)(C)CCCCC[C@@H](N)C(=O)O; X73 = C[N+](C)(C)CCOCCOCCNC(=O)CCCCCCCC*; 3Pal(5-Me) = Cc1cncc(C[C@H](N)C(=O)O)c1; Dab(NMeAc) = CC(=O)N(C)CC[C@H](N)C(=O)O; X1 = CN(CC[C@H](N[*:1])C(=O)[*:2])[*:3]; X9 = COCCOCCOCC[N+](C)(C)CCc1cn(CC*)nn1; CH2CH2OCH2CH2NMe3+ = C[N+](C)(C)CCOCC*; γGlu = O=C(O)[C@H](CCC(=O)[*:2])N[*:1]; 2Nal = N[C@@H](Cc1ccc2ccccc2c1)C(=O)O; X81 = C[N+](C)(CCCC*)CC[N+]1(C)CCOCC1; AEF = NCCOc1ccc(C[C@H](N)C(=O)O)cc1; 3Pal = N[C@@H](Cc1cccnc1)C(=O)O; Ethyl(2-guanidino) = N=C(N)NCC*; Myristoyl = CCCCCCCCCCCCCC(=O)*; Lys(Me) = CNCCCC[C@H](N)C(=O)O; NMeK = CN[C@@H](CCCCN)C(=O)O; Pen = CC(C)(S)[C@H](N)C(=O)O; X31 = N=C(N)NCCOCCC(=O)*; Thp = NC1(C(=O)O)CCOCC1; X3 = C[N+](C)(C)CCCCC*; AEEA = NCCOCCOCC(=O)O; Sar = CNCC(=O)O
Experiment: Exposed Polar Surface Area (EPSA)
Type: physicochemical
Conditions: SFC on Chirex 3014 column; sample 1 mM DMSO stock; read-out: EPSA
Method in brief: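 EPSA, in Å^2, is read from SFC retention time through a linear relationship established with eight calibration standards. Separation uses a Chirex 3014 stationary phase, 35 °C, 14 MPa back pressure, and a 5–60% methanol/ammonium formate modifier gradient in CO2.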

SMILES	EPSA [A^2]
CC(=O)N[C@@H]1C(=O)N[C@@H](CC(=O)N(C)C)C(=O)N[C@@H]([C@@H](C)O)C(=O)N[C@@H](Cc2c[nH]c3c(C)cccc23)C(=O)N[C@@H](CCCCN(C)C(C)=O)C(=O)N[C@H](C(=O)N[C@@H](Cc2ccc(OCCCCC[N+](C)(C)C)cc2)C(=O)N[C@@H](Cc2ccc3ccccc3c2)C(=O)NC2(C(=O)N[C@@H](COCCOCC[N+](C)(C)C)C(=O)N[C@@H](CC(N)=O)C(=O)N[C@@H](Cc3cccnc3)C(=O)N(C)CC(=O)N(C)C)CCOCC2)C(C)(C)SSC1(C)C [compound 275, MeCO-Pen(3)-N(N(Me)2)-T-7MeW-K(NMeAc)-Pen(3)-TMAPF-2Nal-THP-APEG2Ser-N-3Pya-Sar-CON(Me)2] (Ac-[Pen]D(NMe2)T[Trp(7-Me)][Lys(Me)](Ac)[Pen]Y(X3)[2Nal][Thp]S(CH2CH2OCH2CH2NMe3+)N[3Pal][Sar]-NMe2; disulfide 1-6)	149
CC(=O)N(C)CCCC[C@@H]1NC(=O)[C@H](Cc2c[nH]c3c(C)cccc23)NC(=O)[C@H]([C@@H](C)O)NC(=O)[C@H](CC(=O)N(C)C)NC(=O)[C@@H](NC(=O)CCOCCNC(=N)N)C(C)(C)SSC(C)(C)[C@@H](C(=O)N[C@@H](Cc2ccc(OCCOCCOCC[N+](C)(C)C)cc2)C(=O)N[C@@H](Cc2ccc3ccccc3c2)C(=O)NC2(C(=O)N[C@@H](CCCCN(C)C(C)=O)C(=O)N[C@@H](CC(N)=O)C(=O)N[C@@H](Cc3cccnc3)C(=O)N(C)CC(=O)N(C)C)CCOCC2)NC1=O [compound 413, cPEG2gCO-Pen(3)-N(N(Me)2)-T-7MeW-K(NMeAc)-Pen(3)-APEG3F-2Nal-THP-K(NMeAc)-N-3Pya-Sar-CON(Me)2] (X31-[Pen]D(NMe2)T[Trp(7-Me)][Lys(Me)](Ac)[Pen]Y(CH2CH2OCH2CH2OCH2CH2NMe3+)[2Nal][Thp][Lys(Me)](Ac)N[3Pal][Sar]-NMe2; disulfide 1-6)	154
CC(=O)N(C)CCCC[C@@H]1NC(=O)[C@H](Cc2c[nH]c3c(C)cccc23)NC(=O)[C@H]([C@@H](C)O)NC(=O)[C@H](CC(=O)N(C)C)NC(=O)[C@@H](NC(=O)CCOCCOCC[N+](C)(C)C)C(C)(C)SSC(C)(C)[C@@H](C(=O)N[C@@H](Cc2ccc(OCCCCCCCCC(=O)NCCOCCOCC[N+](C)(C)C)cc2)C(=O)N[C@@H](Cc2ccc3ccccc3c2)C(=O)NC2(C(=O)N[C@@H](CCCCN(C)C(C)=O)C(=O)N[C@@H](CC(N)=O)C(=O)N[C@@H](Cc3cccnc3)C(=O)N(C)CC(=O)N(C)C)CCOCC2)NC1=O [compound 254, cPEG3aCO-Pen(3)-N(N(Me)2)-T-7MeW-K(NMeAc)-Pen(3)-YC8CO(NHPEG3a)-2Nal-THP-K(NMeAc)-N-3Pya-Sar-CON(Me)2] ({Me3N+(CH2)2O(CH2)2O(CH2)2CO}-[Pen]D(NMe2)T[Trp(7-Me)][Lys(Me)](Ac)[Pen]Y(X73)[2Nal][Thp][Lys(Me)](Ac)N[3Pal][Sar]-NMe2; disulfide 1-6)	144
CC(=O)N(C)CC[C@H](NC(=O)C1(NC(=O)[C@H](Cc2ccc3ccccc3c2)NC(=O)[C@H](Cc2ccc(OCCN)cc2)NC(=O)[C@H]2NC(=O)[C@H](CCN(C)C(=O)CCOCCOCC[N+](C)(C)C)NC(=O)[C@H](Cc3c[nH]c4c(C)cccc34)NC(=O)[C@H]([C@@H](C)O)NC(=O)[C@H](CC(=O)N(C)C)NC(=O)[C@@H](NC(=O)CCOCCOCC[N+](C)(C)C)C(C)(C)SSC2(C)C)CCOCC1)C(=O)N[C@@H](CC(N)=O)C(=O)N[C@@H](Cc1cccnc1)C(=O)N(C)CC(=O)N(C)C [compound 196, cPEG3aCO-Pen(3)-N(N(Me)2)-T-7MeW-Dab(NMecPEG3a)-Pen(3)-AEF-2Nal-THP-Dab(NMeAc)-N-3Pya-Sar-CON(Me)2] ({Me3N+(CH2)2O(CH2)2O(CH2)2CO}-[Pen]D(NMe2)T[Trp(7-Me)][X1](Me3N+(CH2)2O(CH2)2O(CH2)2CO)[Pen][AEF][2Nal][Thp][Dab(NMeAc)]N[3Pal][Sar]-NMe2; disulfide 1-6 (inferred))	149
CC(=O)N(C)CCCC[C@@H]1NC(=O)[C@H](Cc2c[nH]c3c(C)cccc23)NC(=O)[C@H]([C@@H](C)O)NC(=O)[C@H](CC(=O)N(C)C)NC(=O)[C@@H](NC(=O)CCOCCOCC[N+](C)(C)C)C(C)(C)SSC(C)(C)[C@@H](C(=O)N[C@@H](Cc2ccc(OCCCC[N+](C)(C)CC[N+]3(C)CCOCC3)cc2)C(=O)N[C@@H](Cc2ccc3ccccc3c2)C(=O)NC2(C(=O)N[C@@H](CCCCN(C)C(C)=O)C(=O)N[C@@H](CC(N)=O)C(=O)N[C@@H](Cc3cccnc3)C(=O)N(C)CC(=O)N(C)C)CCOCC2)NC1=O [compound 271, cPEG3aCO-Pen(3)-N(N(Me)2)-T-7MeW-K(NMeAc)-Pen(3)-morfTMA4F-2Nal-THP-K(NMeAc)-N-3Pya-Sar-CON(Me)2] ({Me3N+(CH2)2O(CH2)2O(CH2)2CO}-[Pen]D(NMe2)T[Trp(7-Me)][Lys(Me)](Ac)[Pen]Y(X81)[2Nal][Thp][Lys(Me)](Ac)N[3Pal][Sar]-NMe2; disulfide 1-6)	159
CC(=O)NCCCC[C@@H]1NC(=O)[C@H](Cc2c[nH]c3c(C)cccc23)NC(=O)[C@H]([C@@H](C)O)NC(=O)[C@H](CC(N)=O)NC(=O)[C@@H](NC(=O)[C@@H](CCCNC(=N)N)NC(=O)CCOCCOCC[N+](C)(C)C)C(C)(C)SSC(C)(C)[C@@H](C(=O)N[C@@H](Cc2ccc(OCCNC(=N)N)cc2)C(=O)N[C@@H](Cc2ccc3ccccc3c2)C(=O)NC2(C(=O)N[C@@H](CCC(=O)O)C(=O)N[C@@H](CC(N)=O)C(=O)N[C@@H](Cc3cncc(C)c3)C(=O)N(C)CC(N)=O)CCOCC2)NC1=O [compound 508, cPEG3aCO-r-Pen(3)-N-T-7MeW-K(Ac)-Pen(3)-AEF(G)-2Nal-THP-E-N-5MePyridinAla-Sar-CONH2] ({Me3N+(CH2)2O(CH2)2O(CH2)2CO}-[dR][Pen]NT[Trp(7-Me)]K(Ac)[Pen]Y(Ethyl(2-guanidino))[2Nal][Thp]EN[3Pal(5-Me)][Sar]-NH2; disulfide 2-7)	197

Further lines, results first:

EPSA [A^2]	SMILES
176	CC(=O)NCCCC[C@@H]1NC(=O)[C@H](Cc2c[nH]c3c(C)cccc23)NC(=O)[C@H]([C@@H](C)O)NC(=O)[C@H](CC(N)=O)NC(=O)[C@@H](NC(C)=O)C(C)(C)SSC(C)(C)[C@@H](C(=O)N[C@@H](Cc2ccc(-n3cc(C[N+](C)(C)C)nn3)cc2)C(=O)N[C@@H](Cc2ccc3ccccc3c2)C(=O)NC2(C(=O)N[C@@H](CCC(=O)O)C(=O)N[C@@H](CC(N)=O)C(=O)N[C@@H](Cc3cccnc3)C(=O)N(C)CC(N)=O)CCOCC2)NC1=O [compound 441] (Ac-[Pen]NT[Trp(7-Me)]K(Ac)[Pen][X16][2Nal][Thp]EN[3Pal][Sar]-NH2; disulfide 1-6 (inferred))
147	COCCOCCOCC[N+](C)(C)CCc1cn(CCOc2ccc(C[C@H](NC(=O)[C@H]3NC(=O)[C@H](CCCCNC(C)=O)NC(=O)[C@H](Cc4c[nH]c5c(C)cccc45)NC(=O)[C@H]([C@@H](C)O)NC(=O)[C@H](CC(N)=O)NC(=O)[C@@H](NC(C)=O)C(C)(C)SSC3(C)C)C(=O)N[C@@H](Cc3ccc4ccccc4c3)C(=O)NC3(C(=O)N[C@@H](CCCCNC(C)=O)C(=O)N[C@@H](CC(N)=O)C(=O)N[C@@H](Cc4cccnc4)C(=O)N(C)CC(N)=O)CCOCC3)cc2)nn1 [compound 260] (Ac-[Pen]NT[Trp(7-Me)]K(Ac)[Pen]Y(X9)[2Nal][Thp]K(Ac)N[3Pal][Sar]-NH2; disulfide 1-6)
163	CC(=O)NCCCC[C@@H]1NC(=O)[C@H](Cc2c[nH]c3c(C)cccc23)NC(=O)[C@H]([C@@H](C)O)NC(=O)[C@H](CC(N)=O)NC(=O)[C@@H](NC(C)=O)C(C)(C)SSC(C)(C)[C@@H](C(=O)N[C@@H](Cc2ccc(OCCN)cc2)C(=O)N[C@@H](Cc2ccc3ccccc3c2)C(=O)NC2(C(=O)N[C@@H](CCCCNC(C)=O)C(=O)N[C@@H](CC(N)=O)C(=O)N[C@@H](Cc3cccnc3)C(=O)N(C)CC(=O)N(C)C)CCOCC2)NC1=O [compound 282] (Ac-[Pen]NT[Trp(7-Me)]K(Ac)[Pen][AEF][2Nal][Thp]K(Ac)N[3Pal][Sar]-NMe2; disulfide 1-6)
176	CCCCCCCCCCCCCC(=O)N[C@@H](CCC(=O)NCCOCCOCC(=O)NCCOCCOCC(=O)NCCCC[C@H](NC(=O)C1(NC(=O)[C@H](Cc2ccc3ccccc3c2)NC(=O)[C@H](Cc2ccc(OCCCCC[N+](C)(C)C)cc2)NC(=O)[C@H]2NC(=O)[C@H](CCCCN(C)C(C)=O)NC(=O)[C@H](Cc3c[nH]c4c(C)cccc34)NC(=O)[C@H]([C@@H](C)O)NC(=O)[C@H](CC(=O)N(C)C)NC(=O)[C@@H](NC(=O)[C@@H](CCCCC[N+](C)(C)C)NC(=O)COCCOCCNC(=O)COCCOCCNC(=O)CC[C@H](NC(=O)CCCCCCCCCCCCC)C(=O)O)C(C)(C)SSC2(C)C)CCOCC1)C(=O)N[C@@H](CC(N)=O)C(=O)N[C@@H](Cc1cccnc1)C(=O)N(C)CC(=O)N(C)C)C(=O)O [compound 376, C14gEPEG2PEG2CO-hk(Me)3-Pen(3)-N(N(Me)2)-T-7MeW-K(NMeAc)-Pen(3)-TMAPF-2Nal-THP-K(PEG2PEG2gEC14)-N-3Pya-Sar-CON(Me)2] ({Myristoyl-γGlu-AEEA-AEEA}-[d(hLys(Me3))][Pen]D(NMe2)T[Trp(7-Me)][Lys(Me)](Ac)[Pen]Y(X3)[2Nal][Thp]K([AEEA-AEEA-γGlu-Myristoyl])N[3Pal][Sar]-NMe2; disulfide 2-7)
186	CCCCCCCCCCCCCC(=O)N[C@@H](CCC(=O)NCCOCCOCC(=O)NCCOCCOCC(=O)NCCCC[C@@H]1NC(=O)[C@H](Cc2c[nH]c3c(C)cccc23)NC(=O)[C@H]([C@@H](C)O)NC(=O)[C@H](CC(=O)N(C)C)NC(=O)[C@@H](NC(=O)CCOCCOCC[N+](C)(C)C)C(C)(C)SSC(C)(C)[C@@H](C(=O)N[C@@H](Cc2ccc(OCCCCC[N+](C)(C)C)cc2)C(=O)N[C@@H](Cc2ccc3ccccc3c2)C(=O)NC2(C(=O)N[C@@H](CCCCN(C)C(C)=O)C(=O)N[C@@H](CC(N)=O)C(=O)N[C@@H](Cc3cccnc3)C(=O)N(C)[C@@H](CCCCNC(=O)COCCOCCNC(=O)COCCOCCNC(=O)CC[C@H](NC(=O)CCCCCCCCCCCCC)C(=O)O)C(N)=O)CCOCC2)NC1=O)C(=O)O [compound 355, cPEG3aCO-Pen(3)-N(N(Me)2)-T-7MeW-K(PEG2PEG2gEC14)-Pen(3)-TMAPF-2Nal-THP-K(NMeac)-N-3Pya-NMeK(PEG2PEG2gEC14)-CONH2] ({Me3N+(CH2)2O(CH2)2O(CH2)2CO}-[Pen]D(NMe2)T[Trp(7-Me)]K([AEEA-AEEA-γGlu-Myristoyl])[Pen]Y(X3)[2Nal][Thp][Lys(Me)](Ac)N[3Pal][NMeK]([AEEA-AEEA-γGlu-Myristoyl])-NH2; disulfide 1-6)

Reference: patent US20260022143A1, “Cyclic Peptide Inhibitors of IL-23” (JANSSEN PHARMACEUTICA NV, priority 2022, published 2026)
